Source: patent US20070179143A1 (priority 2003, published 2007)

Experiments:
SK-OV-3 = assay: Cytotoxicity test to cancer cell lines (SRB method), SK-OV-3; assay type: cell-based; conditions: Homo sapiens, SK-OV-3, 48 h, read-out: Cytotoxicity ED50 SK-OV-3
SK-MEL-2 = assay: Cytotoxicity test to cancer cell lines (SRB method), SK-MEL-2; assay type: cell-based; conditions: Homo sapiens, SK-MEL-2, 48 h, read-out: Cytotoxicity ED50 SK-MEL-2
A549 = assay: Cytotoxicity test to cancer cell lines (SRB method), A549; conditions: Homo sapiens, A549, 48 h, read-out: Cytotoxicity ED50 A549
HCT-15 = assay: Cytotoxicity test to cancer cell lines (SRB method), HCT-15; conditions: Homo sapiens, HCT-15, 48 h, read-out: Cytotoxicity ED50 HCT15
Method: Cytotoxicity to A549 (Korea Research Institute of Chemical Technology), SK-OV-3 (Korea Research Institute of Chemical Technology), SK-MEL-2 (Korea Research Institute of Chemical Technology), HCT-15 (Korea Research Institute of Chemical Technology) and MCF7 (Korean Cell Line Bank, Seoul National University School of medicine) cells was measured by Sulforhodamin-B (SRB) method (1989, National Cancer Institute (NCI)) which was developed for the measurement of in vitro anticancer activity of a drug. Cells were separated using 0.25% trypsin-EDTA solution, leading to the preparation of a cell suspension by 5×10^318 2×10^4 cells/well. Then, the suspension was distributed into a 96 well plate by 100 μl/well, which was cultured in a 37° C., 5% CO2 incubator for 24 hours. Compounds prepared in examples of the present invention were used as a sample. Precisely, the compound was dissolved in dimethylsulfoxide and diluted with RPMI 1640 medium before being used as a sample. The final concentration of the sample used varied ranging 1 μM˜0.00001 μM. The medium was removed from the 96 well plate and then diluted sample solution was added by 100 μl/well, followed by further culture in a 37° C., 5% CO2 incubator for 48 hours. Tz (time zero) plate was collected from the point of adding the sample. Upon completing the culture, the medium was removed from each well along with Tz plate, then 10% trichloroacetic acid (TCA) was added by 100 μl/well. The plate was left at 4° C. for 1 hour to let cells be fixed on the floor of the plate. After cells were fixed completely, the plate was washed with water 5-6 times to remove the remaining trichloroacetic acid solution completely and moisture was completely dried at room temperature. 0.4% Sulforhodamine-B was dissolved in 1% acetic acid solution to prepare a staining solution. Cells were stained for 30 minutes with a dye added by 100 μl to each well of the completely dried plate. Then, the plate was washed with 1% acetic acid solution 5-6 times to remove sulforhodamine-B remained uncombined with cells. Then, the plate was dried at room temperature. 10 mM Tris solution was added by 100 μ/well thereto to dissolve the dye, and optical density (OD) was measured at 520 nm with a micro plate reader.
ED50 (concentration that inhibits cancer cell growth 50%, 5.0% effective dose, nM/ml) of the sample to cancer cell was calculated as follows. OD value at the point of beginning the culture with the sample was determined as Tz (time zero) value. OD value of a well to be cultured without the sample was determined as a control value (C). OD value of a well pretreated with the sample was determined as experimental value (T). After calculating Tz, C and T, cytotoxicity of the sample was measured by the below <Mathematical Formula 1>. T≦Tz, (T−Tz)/(C−Tz)×100 T>Tz, (T−Tz)/Tz×10,0 <Mathematical Formula 1>
ED50, the concentration that can inhibit cancer cell growth by 50%, was calculated by using a regression analysis of lotus program based on the degree of cytotoxicity obtained by the <Mathematical Formula 1>.

MCF7 = assay: Cytotoxicity test to cancer cell lines (SRB method), MCF7; conditions: read-out: Cytotoxicity ED50 MCF-7, MCF-7, 48 hours

Compound | EC50 (SK-OV-3) [nM] | EC50 (SK-MEL-2) [nM] | EC50 (A549) [nM] | EC50 (HCT-15) [nM] | EC50 (MCF7) [nM]
COc1cc2c(c(OC)c1OC)-c1ccc(SC)c(=O)cc1[C@@H](NC(=O)c1ccc(CO[N+](=O)[O-])nc1)CC2 [Example 1, 6-nitrooxymethyl-N-[(7S)-1,2,3-trimethoxy-10-methylsulfanyl-9-oxo-5,6,7,9-tetrahydro-benzo[a]heptalen-7-yl]-nicotineamide] | 1 | 0.4 | 1.8 | 0.6 | –
COc1cc2c(c(OC)c1OC)-c1ccc(SC)c(=O)cc1[C@@H](NC(=O)c1ccc(CO[N+](=O)[O-])o1)CC2 [Example 2, 5-nitrooxymethyl-furan-2-carboxylic acid-[(7S)-1,2,3-trimethoxy-10-methylsulfanyl-9-oxo-5,6,7,9-tetrahydro-benzo[a]heptalen-7-yl]-amide] | 9.3 | 5.4 | 15.8 | 2.3 | 2.9
COc1c(OC(C)C)cc2c(c1OC)-c1ccc(SC)c(=O)cc1[C@@H](NC(=O)c1cccc(CO[N+](=O)[O-])c1)CC2 [Example 3, N-[(7S)-3-isopropoxy-1,2-dimethoxy-10-methylsulfanyl-9-oxo-5,6,7,9-tetrahydro-benzo[a]heptalen-7-yl]-3-nitrooxymethyl-benzamide] | 4 | 1 | 2.4 | 4.8 | 2.3
CCOc1cc2c(c(OC)c1OC)-c1ccc(SC)c(=O)cc1[C@@H](NC(=O)c1cccc(CO[N+](=O)[O-])c1)CC2 [Example 4, N-[(7S)-3-ethoxy-1,2-dimethoxy-10-methylsulfanyl-9-oxo-5,6,7,9-tetrahydro-benzo[a]heptalen-7-yl]-3-nitrooxymethyl-benzamide] | 0.01 | 0.01 | 0.01 | 0.03 | 0.01
COc1cc2c(c(OC)c1OC)-c1ccc(SC)c(=O)cc1[C@@H](NC(=O)c1cccc(CO[N+](=O)[O-])n1)CC2 [Example 5, 6-nitrooxymethyl-pyridine-2-carboxylic acid-[(7S)-1,2,3-trimethoxy-10-methylsulfanyl-9-oxo-5,6,7,9-tetrahydro-benzo[a]heptalen-7-yl]-amide] | 1 | 3.1 | 1 | 4.4 | –
COc1cc2c(c(OC)c1OC)-c1ccc(SC)c(=O)cc1[C@@H](NC(=O)c1ccc(CO[N+](=O)[O-])s1)CC2 [Example 6, 5-nitrooxymethyl-thiophene-2-carboxylic acid-[(7S)-1,2,3-trimethoxy-10-methylsulfanyl-9-oxo-5,6,7,9-tetrahydro-benzo[a]heptalen-7-yl]-amide] | 0.37 | 0.08 | 0.7 | 0.27 | 0.16
COc1c(OC2CCCC2)cc2c(c1OC)-c1ccc(SC)c(=O)cc1[C@@H](NC(=O)c1cccc(CO[N+](=O)[O-])c1)CC2 [Example 7, N-[(7S)-3-cyclopentyloxy-1,2-dimethoxy-10-methylsulfanyl-9-oxo-5,6,7,9-tetrahydro-benzo[a]heptalen-7-yl]-3-nitrooxymethyl-benzamide] | > 50 | > 50 | > 50 | > 50 | > 50
COc1c(OC(C)C)cc2c(c1OC)-c1ccc(SC)c(=O)cc1[C@@H](NC(=O)c1cccc(CO[N+](=O)[O-])c1F)CC2 [Example 9, 2-fluoro-N-[(7S)-3-isopropoxy-1,2-dimethoxy-10-methylsulfanyl-9-oxo-5,6,7,9-tetrahydro-benzo[a]heptalen-7-yl]-3-nitrooxymethyl-benzamide] | 0.34 | 0.22 | 0.49 | 0.64 | 0.13
COc1cc2c(c(OC)c1OC)-c1ccc(SC)c(=O)cc1[C@@H](NC(=O)c1ccc(F)c(CO[N+](=O)[O-])c1)CC2 [Example 16, 4-fluoro-3-nitrooxymethyl-N-[(7S)-1,2,3-trimethoxy-10-methylsulfanyl-9-oxo-5,6,7,9-tetrahydro-benzo[a]heptalen-7-yl]-benzamide] | 1 | 1 | 1.6 | 1 | –
COc1cc2c(c(OC)c1OC)-c1ccc(SC)c(=O)cc1[C@@H](NC(=O)c1cc(O)cc(CO[N+](=O)[O-])c1)CC2 [Example 18, 3-hydroxy-5-nitrooxymethyl-N-[(7S)-1,2,3-trimethoxy-10-methylsulfanyl-9-oxo-5,6,7,9-tetrahydro-benzo[a]heptalen-7-yl]-benzamide] | 3.8 | 1 | 8.1 | 5.3 | –
COc1cc2c(c(OC)c1OC)-c1ccc(SC)c(=O)cc1[C@@H](NC(=O)c1ccc(COC(=O)c3cccc(O[N+](=O)[O-])c3)nc1)CC2 [Example 25, 3-nitrooxy-benzoic acid-5-[(7S)-1,2,3-trimethoxy-10-methylsulfanyl-9-oxo-5,6,7,9-tetrahydro-benzo[a]heptalen-7-yl-carbamoyl]-pyridine-2-yl-methylester] | 5.4 | 14 | 8.8 | 15 | –
COc1cc2c(c(OC)c1OC)-c1ccc(SC)c(=O)cc1[C@@H](NC(=O)c1ccc(COC(=O)CCCO[N+](=O)[O-])nc1)CC2 [Example 26, 4-nitrooxybutyric acid-5-[(7S)-1,2,3-trimethoxy-10-methylsulfanyl-9-oxo-5,6,7,9-tetrahydro-benzo[a]heptalen-7-yl-carbamoyl]-pyridine-2-yl-methylester] | > 50 | 47 | 21 | > 50 | –
COc1cc2c(c(OC)c1OC)-c1ccc(SC)c(=O)cc1[C@@H](NC(=O)c1cccc(COC(=O)c3cccc(CO[N+](=O)[O-])c3)n1)CC2 [Example 27, 3-nitrooxymethyl-benzoicacid-6-[(7S) -1,2,3-trimethoxy-10-methylsulfanyl-9-oxo-5,6,7,9-tetrahydro-benzo[a]heptalen-7-yl-carbamoyl]-pyridine-2-yl-methylester] | 16 | 7 | 5 | 2 | –
COc1cc2c(c(OC)c1OC)-c1ccc(SC)c(=O)cc1[C@@H](NC(=O)c1cccc(COC(=O)CCCO[N+](=O)[O-])n1)CC2 [Example 28, 4-nitrooxybutyric acid-6-[(7S)-1,2,3-trimethoxy-10-methylsulfanyl-9-oxo-5,6,7,9-tetrahydro-benzo[a]heptalen-7-yl-carbamoyl]-pyridine-2-yl-methylester] | 15 | 4 | 6 | 3 | –
COc1cc2c(c(OC)c1OC)-c1ccc(SC)c(=O)cc1[C@@H](NC(=O)c1ccccc1OC(=O)c1cccc(CO[N+](=O)[O-])c1)CC2 [Example 29, 3-nitrooxymethyl-benzoic acid-2-[(7S)-1,2,3-trimethoxy-10-methylsulfanyl-9-oxo-5,6,7,9-tetrahydro-benzo[a]heptalen-7-yl-carbamoyl]-phenylester] | 3 | 0.9 | 1.1 | 0.8 | –
COc1cc2c(c(OC)c1OC)-c1ccc(SC)c(=O)cc1[C@@H](NC(=O)c1ccccc1OC(=O)CCCO[N+](=O)[O-])CC2 [Example 30, 4-nitrooxybutyric acid-2-[(7S)-1,2,3-trimethoxy-10-methylsulfanyl-9-oxo-5,6,7,9-tetrahydro-benzo[a]heptalen-7-yl-carbamoyl]-phenylester] | 8.2 | 3.6 | 3.6 | 5.2 | –
COc1cc2c(c(OC)c1OC)-c1ccc(SC)c(=O)cc1[C@@H](NC(=O)c1cccc(OC(=O)c3cccc(CO[N+](=O)[O-])c3)c1)CC2 [Example 31, 3-nitrooxymethyl-benzoic acid-3-[(7S)-1,2,3-trimethoxy-10-methylsulfanyl-9-oxo-5,6,7,9-tetrahydro-benzo[a]heptalen-7-yl-carbamoyl]-phenylester] | 3 | 0.9 | 1.1 | 0.8 | –
COc1cc2c(c(OC)c1OC)-c1ccc(SC)c(=O)cc1[C@@H](NC(=O)c1cccc(OC(=O)CCCO[N+](=O)[O-])c1)CC2 [Example 32, 4-nitrooxybutyric acid-3-[(7S)-1,2,3-trimethoxy-10-methylsulfanyl-9-oxo-5,6,7,9-tetrahydro-benzo[a]heptalen-7-yl-carbamoyl]-phenylester] | 1 | 0.05 | 6.2 | 0.08 | –
COc1cc2c(c(OC)c1OC)-c1ccc(SC)c(=O)cc1[C@@H](NC(=O)c1cccc(COC(=O)c3cccc(CO[N+](=O)[O-])c3)c1)CC2 [Example 33] | 6.6 | 2.9 | 3.8 | 1 | –
COc1cc2c(c(OC)c1OC)-c1ccc(SC)c(=O)cc1[C@@H](NC(=O)c1cccc(CON=O)c1)CC2 [Example 36, 3-nitrosooxymethyl-N-[(7S)-1,2,3-trimethoxy-10-methylsulfanyl-9-oxo-5,6,7,9-tetrahydro-benzo[a]heptalen-7-yl]-benzamide] | 1.1 | 0.1 | 2.9 | 0.7 | –
COc1cc2c(c(OC)c1OC)-c1ccc(SC)c(=O)cc1[C@@H](NC(=O)c1cccc(CSN=O)c1)CC2 [Example 38, 3-nitrosothiomethyl-N-[(7S)-1,2,3-trimethoxy-10-methylsulfanyl-9-oxo-5,6,7,9-tetrahydro-benzo[a]heptalen-7-yl]-benzamide] | 4.1 | 3.3 | 2.4 | 3 | –
